PubChem BioAssay (NCI)
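A five-concentration, 48-hour dose response in 96-well plates underlies each endpoint, interpolated linearly between surrounding concentrations. TGI is the concentration that stops growth completely.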

Columns and labels:
Experiment in all cases: DTP human tumour cell line panel, 48 h
786-0 renal = tested on: 786-0 renal
COLO 205 colon = tested on: COLO 205 colon
EKVX NSCLC = tested on: EKVX NSCLC
KM12 colon = tested on: KM12 colon
LOX IMVI melanoma = tested on: LOX IMVI melanoma
M14 melanoma = tested on: M14 melanoma
OVCAR-8 ovarian = tested on: OVCAR-8 ovarian
RPMI-8226 leukemia = tested on: RPMI-8226 leukemia
RXF 393 renal = tested on: RXF 393 renal
SF-295 CNS = tested on: SF-295 CNS
SK-MEL-28 melanoma = tested on: SK-MEL-28 melanoma
SW-620 colon = tested on: SW-620 colon
TK-10 renal = tested on: TK-10 renal
U251 CNS = tested on: U251 CNS
UACC-257 melanoma = tested on: UACC-257 melanoma
UACC-62 melanoma = tested on: UACC-62 melanoma
UO-31 renal = tested on: UO-31 renal
DU-145 prostate = tested on: DU-145 prostate
T-47D breast = tested on: T-47D breast

| Compound | TGI (786-0 renal) [µM] | TGI (COLO 205 colon) [µM] | TGI (EKVX NSCLC) [µM] | TGI (KM12 colon) [µM] | TGI (LOX IMVI melanoma) [µM] | TGI (M14 melanoma) [µM] | TGI (OVCAR-8 ovarian) [µM] | TGI (RPMI-8226 leukemia) [µM] | TGI (RXF 393 renal) [µM] | TGI (SF-295 CNS) [µM] | TGI (SK-MEL-28 melanoma) [µM] | TGI (SW-620 colon) [µM] | TGI (TK-10 renal) [µM] | TGI (U251 CNS) [µM] | TGI (UACC-257 melanoma) [µM] | TGI (UACC-62 melanoma) [µM] | TGI (UO-31 renal) [µM] | TGI (DU-145 prostate) [µM] | TGI (T-47D breast) [µM] |
| --- | --- | --- | --- | --- | --- | --- | --- | --- | --- | --- | --- | --- | --- | --- | --- | --- | --- | --- | --- |
| C/C(=N\NC(=S)NC(CCC(=O)O)C(=O)O)c1cnccn1 (stereo not drawn) | > 100 | > 100 | > 100 | > 100 | > 100 | > 100 | > 100 | > 100 | > 100 | > 100 | > 100 | > 100 | > 100 | > 100 | > 100 | > 100 | > 100 |  |  |
| O=C(Cc1ccc([N+](=O)[O-])c([N+](=O)[O-])c1CC(=O)C(=O)Nc1cc(Cl)ccc1Cl)C(=O)Nc1cc(Cl)ccc1Cl | > 100 | 52.5 | > 100 | > 100 | 65.9 | > 100 | > 100 | > 100 | 94.7 | > 100 | > 100 | > 100 | > 100 | 70.1 | > 100 | > 100 | > 100 |  |  |
| CCN(CC)CCC1(C2CCCCC2)CCC(=O)NC1=O (stereo not drawn) | > 100 | > 100 | > 100 | > 100 | > 100 | > 100 | > 100 | > 100 | > 100 | > 100 | > 100 | > 100 | > 100 | > 100 | > 100 | > 100 | > 100 |  |  |
| CCOc1ccc(/C=C(\Cl)c2ccc(OC)cc2)cc1 | > 100 | > 100 | > 100 |  |  | > 100 | > 100 | > 100 | > 100 | > 100 | > 100 | > 100 |  | > 100 | > 100 | > 100 | > 100 |  |  |
| COc1ccccc1-n1c(N)c2c(C)c(-c3ccccc3)[nH]c2nc1=S | > 100 | > 100 |  | > 100 | > 100 | > 100 | > 100 | > 100 |  |  | > 100 | > 100 | > 100 | > 100 | > 100 | > 100 | > 100 |  |  |
| CCOC(=O)CCC(NC(=O)c1ccc(N=Cc2nc3ccccc3nc2-c2ccccc2)cc1)C(=O)OCC (stereo not drawn) | > 100 | > 100 | > 100 | > 100 | > 100 | > 100 | > 100 | > 100 | > 100 | > 100 | > 100 | > 100 | > 100 | > 100 | > 100 | > 100 | > 100 |  |  |
| CC/C(=N/O)c1ccc2[nH]c3c(C)cc([N+](=O)[O-])c(C)c3c2c1 | > 100 | > 100 | > 100 | > 100 | > 100 | > 100 | > 100 | > 100 |  | > 100 | > 100 | > 100 | > 100 |  | > 100 |  | > 100 |  |  |
| Cc1ccc(NC(=O)CSc2nnc(Cc3ccccc3)o2)cc1 | > 100 | > 100 | > 100 | > 100 | > 100 | > 100 | > 100 | > 100 | > 100 | > 100 | > 100 | > 100 | > 100 | > 100 | > 100 | > 100 | > 100 |  |  |
| CC1(C)OCN(c2ccc(S(N)(=O)=O)cc2)Cn2c1nc1ccccc12 | > 100 | > 100 | > 100 | > 100 | > 100 | > 100 | > 100 | > 100 | > 100 | > 100 | > 100 | > 100 | > 100 | > 100 | > 100 | > 100 | > 100 |  |  |
| C#CCNC(=O)NCCCCC(NC(C)=O)C(=O)NCc1ccccc1 (stereo not drawn) | > 100 | > 100 | > 100 | > 100 | > 100 | > 100 | > 100 | > 100 | > 100 | > 100 | > 100 | > 100 | > 100 | > 100 | > 100 | > 100 | > 100 |  |  |
| Cc1cccc(/C=N\NC(=S)N2CCCCC2)n1 | 20.8 | 0.22 | > 100 | > 100 | 41.6 | 0.406 | 0.582 | 0.502 | 0.593 | 6.58 | > 100 | > 100 |  | > 100 | 0.0589 | 3.81 | 26.2 | > 100 | > 100 |
| Cc1nc(-n2nc(-c3ccccc3)cc2-c2ccccc2)sc1C(=O)/C=C/c1ccc(Cl)c(Cl)c1 | 33.5 | > 100 | > 100 | 20.8 | 27.5 | 40.5 | 31.3 |  | > 100 | 35.7 | > 100 | 57.3 | > 100 | 23.8 | > 100 | 19.9 | 23.9 |  |  |
| Clc1ccc(CCc2ccncn2)c(Cl)c1 | > 100 | > 100 | > 100 | > 100 | > 100 | > 100 | > 100 | > 100 | 82.4 | > 100 | > 100 | > 100 | > 100 | > 100 | > 100 | > 100 | 94 |  |  |
| COc1ccccc1-n1c(NN)nc2ccc(Br)cc2c1=O | > 100 | > 100 | > 100 | > 100 | > 100 | > 100 | > 100 | > 100 | > 100 | > 100 | > 100 | > 100 | 79.5 | > 100 | 72.1 | > 100 | 93.1 |  |  |
| CCCCNC(=NCc1ccccc1)NC#N | > 100 | > 100 | > 100 | > 100 | > 100 | > 100 | > 100 | > 100 |  | > 100 | > 100 | > 100 | > 100 | > 100 |  | > 100 | > 100 |  |  |
| CCOC(=O)C(/C(=N\NC(=O)OC)C(=O)Nc1cc(OC)ccc1OC)c1cnc2ccccc2n1 (stereo not drawn) | > 100 | > 100 | > 100 |  | > 100 | > 100 | > 100 | > 100 | > 100 | > 100 | > 100 | > 100 | > 100 | > 100 | > 100 | > 100 | > 100 |  |  |
| C[C@@H]1OC2(O)[C@H]3CCCN3S(=O)(=O)CCN2C1=O (stereo partly drawn) | > 100 | > 100 | > 100 | > 100 | > 100 | > 100 | > 100 | > 100 | > 100 | > 100 | > 100 | > 100 | > 100 | > 100 | > 100 | > 100 | > 100 |  |  |
| COc1cc(OC)c2c(=O)c3c([N+](=O)[O-])cccc3n(C)c2c1 | > 100 | > 100 | > 100 | > 100 | > 100 | > 100 | > 100 | > 100 | > 100 | > 100 | > 100 | > 100 | > 100 | > 100 | > 100 | > 100 | > 100 |  |  |
| O=C(N/N=C(/c1nc2ccc([N+](=O)[O-])cc2[nH]c1=O)C(O)c1ccc([N+](=O)[O-])cc1)c1ccncc1 (stereo not drawn) | > 100 | > 100 | > 100 | > 100 | > 100 | > 100 | > 100 | > 100 |  | > 100 | > 100 | > 100 | > 100 | > 100 | > 100 | > 100 | > 100 |  |  |
| O=C(Cn1c(=O)oc2ccc(C(=O)c3ccc(F)cc3)cc21)c1ccccc1 | > 100 | > 100 |  | > 100 | > 100 | > 100 | > 100 | > 100 | > 100 |  | > 100 | > 100 | > 100 | > 100 | > 100 | > 100 | > 100 | > 100 | > 100 |
| Oc1cc(CN2CCOCCOCCOCCOCC2)c(O)cc1CN1CCOCCOCCOCCOCC1 | 58.5 | 39.6 | > 100 | > 100 | 66.4 | 38.9 | > 100 | 63.8 | 60.5 | > 100 | 54.7 | 53.1 | > 96.2 | > 56.8 | > 100 | > 72.2 | > 100 |  |  |
| CCOC(=O)N(C)C(=C(F)F)C(F)(F)F | 72 | 44 | 89.2 | > 100 | 85.5 | 46.5 | 79.4 | 49 |  | > 100 | > 100 | 67.9 | 97.8 | > 100 | > 100 |  | > 100 | > 100 | 92.1 |
| Oc1cnc2c(O)cccc2c1 | > 100 |  | 57.2 | > 100 | > 100 | > 100 | 80.5 | > 100 |  | > 100 | > 100 | > 100 | > 100 | > 100 | > 100 | 62.3 | > 100 | > 100 | 91.6 |
| C=C1C(=O)O[C@H]2C/C(C)=C/CC[C@]3(C)CCC[C@](C)(CC[C@@H]12)O3 | 16.4 | 14.8 | 22.7 | 17.4 | > 50 |  | 15.2 | 20 | 18.4 | > 50 | 15.8 | 17.7 | 18.4 | 17.7 | 21.7 | 24.4 | 15.7 | > 50 | 25.9 |
| C/C(=N/NC(=O)C[n+]1ccccc1)C(CN(CC(C)C)CC(C)C)C(=O)Nc1ccc(C)cc1C (stereo not drawn) | > 100 | > 100 | > 100 |  |  | > 100 | > 100 | > 100 | > 100 |  | > 100 | > 100 | > 100 |  | > 100 | > 100 | 82.8 |  |  |
| C[C@@H]1O[C@]2(O)[C@@H]3CCCN3S(=O)(=O)CCN2C1=O | > 100 | > 100 | > 100 | > 100 | > 100 | > 100 | > 100 | > 100 | > 100 | > 100 | > 100 | > 100 | > 100 | > 100 | > 100 | > 100 | > 100 |  |  |
| C[C@@]1(Cc2ccccc2)C(=O)N2[C@@H](CO)C(c3ccccc3)O[C@]2(C)c2ccccc21 (stereo partly drawn) | > 100 | > 100 | > 100 | > 100 | > 100 | > 100 | > 100 | > 100 | > 100 | > 100 | > 100 | > 100 | > 100 | > 100 |  | > 100 | > 100 |  |  |
| CC12C(=C(C#N)C(=N)N1c1ccc(Cl)c(Cl)c1)C=C(O)CC2SCCS(=O)(=O)O (stereo not drawn) | > 100 | > 100 | > 100 | > 100 | > 100 |  | > 100 | > 100 | 94.7 | > 100 | > 100 | > 100 | > 100 | > 100 | > 100 | > 100 | > 100 |  |  |
